Data reported in patent publication US20240269135A1, “METHODS OF TREATING BREAST CANCER” (ASTRAZENECA AB, priority 2021, published 2024).

Columns and labels:
[1] = OlympiA exposure to study treatment, dose intensity, dose reductions and treatment discontinuations; type: in vivo, human; details: safety analysis set; 300 mg bd, N = 911
Method: A total of 1815 patients (911 in the olaparib-group and 904 in the placebo-group) were included in the safety analysis. The median number of days at 300 mg twice-daily protocol dose was 338 with percentage of intended dose being 94.8% in the olaparib-group, and 358 days and 98.9% in the placebo-group (Tables S11 to S13 in the Supplementary Appendix). Early treatment discontinuations, including discontinuations due to recurrence, occurred in 236 (25.9%) of the olaparib-group and 187 (20.7%) of the placebo-group (Figure S4 in the Supplementary Appendix).
In the olaparib-group, 228 patients (25.0%) required a dose reduction compared to 47 (5.2%) in the placebo-group. Adverse events requiring permanent discontinuation of the trial drug occurred in 90 patients (9.9%) in the olaparib-group and 38 patients (4.2%) in the placebo-group. […] (Table S15, S16 in the Supplementary Appendix). […] Any differences between the treatment arms are not considered clinically significant (Figure S5 in the Supplementary Appendix).

[2] = OlympiA safety analysis: adverse events, blood transfusions; type: in vivo
Method: Efficacy analyses were based on the intention-to-treat (ITT) population. Survival functions were estimated by Kaplan-Meier method. The stratified Cox proportional-hazards model was used to estimate the hazard ratio and confidence intervals, the comparison of survival between treatment arms was tested by stratified log-rank test. […] Safety was assessed in the population who received at least one dose of study medication.
Adverse events of special interest included pneumonitis, radiation pneumonitis, myelodysplastic syndrome (MDS)/AML, and new primary malignancy other than AML/MDS.

[3] = olaparib group, safety analysis set
[4] = safety analysis set, olaparib n=911
[5] = safety analysis set, olaparib n=911, listed as olaparib
[6] = safety analysis set, 300 mg bd, N = 911
[7] = treatment month: >=1-2 months, 300 mg bd, N = 911
[8] = treatment month: >=2-3 months, 300 mg bd, N = 911
[9] = treatment month: >=3-4 months, 300 mg bd, N = 911
[10] = treatment month: >=4-5 months, 300 mg bd, N = 911
[11] = treatment month: >=5-6 months, 300 mg bd, N = 911
[12] = treatment month: >=6-7 months, 300 mg bd, N = 911
[13] = treatment month: >=7-8 months, 300 mg bd, N = 911
[14] = treatment month: >=8-9 months, 300 mg bd, N = 911
[15] = treatment month: >=9-10 months, 300 mg bd, N = 911
[16] = treatment month: >=10-11 months, 300 mg bd, N = 911
[17] = treatment month: >=11 months, 300 mg bd, N = 911
[18] = treatment month: Up to month 1, 300 mg bd, N = 911

## O=C(c1cc(Cc2n[nH]c(=O)c3ccccc23)ccc1F)N1CCN(C(=O)C2CC2)CC1 [Olaparib, 4-[(3-{[4-(cyclopropane-carbonyl)piperazine-1-yl]carbonyl}-4-fluorophenyl)methyl]-2H-phthalazin-1-one]
[1]
  Number of patients with a dose reduction: 1 dose reduction (%): 170 (18.7) patients (%)
  Number of patients with a dose reduction: 2 dose reductions (%): 57 (6.3) patients (%)
  Number of patients with a dose reduction: 3 or more dose reductions (%): 1 (0.1) patients (%)
  Patients with a dose reduction (%): 228 (25.0) patients (%)
  Patients with no dose reduction (%): 683 (75.0) patients (%)
  Reason for reduction: Administrative reasons (%): 2 (0.2) patients (%)
  Reason for reduction: Adverse event (%): 222 (24.4) patients (%)
  Reason for reduction: Dosing error (%): 6 (0.7) patients (%)
  Reason for reduction: Other (%): 0 (0.0) patients (%)
  Total number of dose reductions: 287
[2]; [3]
  anemia leading to discontinuation of study drug: 1.8%
  fatigue leading to discontinuation of study drug: 1.3%
  nausea leading to discontinuation of study drug: 2.0%
  neutrophil count decreased leading to discontinuation of study drug: 1%
[2]; safety analysis set, olaparib N=911
  Number of patients with only 1 transfusion: 4.1%
[2]; safety analysis set, olaparib N=911, up to 30 days after last dose
  Patients with at least one blood transfusion: 5.8%
[2]; [4]
  Neutrophil count decreased (neutropenia), Grade ≥3: (4.8) %
  Neutrophil count decreased, Grade ≥3: 44 no.
  White blood cell count decreased (leukopenia), Grade ≥3: (3.0) %
  White blood cell count decreased, Grade ≥3: 27 no.
[2]; [5]
  Anemia, Grade ≥3: 8.7%
  Fatigue, Grade ≥3: 1.8%
  Neutrophil count decreased (neutropenia), Grade ≥3: 4.8%
  White blood cell count decreased (leukopenia), Grade ≥3: 3.0%
[2]; [6]
  AE leading to permanent discontinuation of treatment: Abdominal pain upper: 1 (0.1) no. of patients (%)
  AE leading to permanent discontinuation of treatment: Anaemia: 16 (1.8) no. of patients (%)
  AE leading to permanent discontinuation of treatment: Arthralgia: 1 (0.1) no. of patients (%)
  AE leading to permanent discontinuation of treatment: Breast cancer: 1 (0.1) no. of patients (%)
  AE leading to permanent discontinuation of treatment: Decreased appetite: 2 (0.2) no. of patients (%)
  AE leading to permanent discontinuation of treatment: Diarrhoea: 3 (0.3) no. of patients (%)
  AE leading to permanent discontinuation of treatment: Dizziness: 2 (0.2) no. of patients (%)
  AE leading to permanent discontinuation of treatment: Drug hypersensitivity: 3 (0.3) no. of patients (%)
  AE leading to permanent discontinuation of treatment: Fatigue: 12 (1.3) no. of patients (%)
  AE leading to permanent discontinuation of treatment: Headache: 7 (0.8) no. of patients (%)
  AE leading to permanent discontinuation of treatment: Nausea: 18 (2.0) no. of patients (%)
  AE leading to permanent discontinuation of treatment: Neutrophil count decreased: 9 (1.0) no. of patients (%)
  AE leading to permanent discontinuation of treatment: Pruritus: 3 (0.3) no. of patients (%)
  AE leading to permanent discontinuation of treatment: Vomiting: 7 (0.8) no. of patients (%)
  AE leading to permanent discontinuation of treatment: White blood cell count decreased: 6 (0.7) no. of patients (%)
  Any AE leading to permanent discontinuation: 90 (9.9) no. of patients (%)
[2]; safety analysis, olaparib-group
  lymphopenia, grade 3 or higher: 1.2%
[2]; [7]
  Blood transfusions over time, Total no. of transfusions: 2
  Blood transfusions over time, no. of patients (%): 2 (0.2) no. of patients (%)
[2]; [8]
  Blood transfusions over time, Total no. of transfusions: 22
  Blood transfusions over time, no. of patients (%): 21 (2.3) no. of patients (%)
[2]; [9]
  Blood transfusions over time, Total no. of transfusions: 10
  Blood transfusions over time, no. of patients (%): 8 (0.9) no. of patients (%)
[2]; [10]
  Blood transfusions over time, Total no. of transfusions: 5
  Blood transfusions over time, no. of patients (%): 5 (0.5) no. of patients (%)
[2]; [11]
  Blood transfusions over time, Total no. of transfusions: 8
  Blood transfusions over time, no. of patients (%): 7 (0.8) no. of patients (%)
[2]; [12]
  Blood transfusions over time, Total no. of transfusions: 4
  Blood transfusions over time, no. of patients (%): 4 (0.4) no. of patients (%)
[2]; [13]
  Blood transfusions over time, Total no. of transfusions: 8
  Blood transfusions over time, no. of patients (%): 8 (0.9) no. of patients (%)
[2]; [14]
  Blood transfusions over time, Total no. of transfusions: 3
  Blood transfusions over time, no. of patients (%): 3 (0.3) no. of patients (%)
[2]; [15]
  Blood transfusions over time, Total no. of transfusions: 2
  Blood transfusions over time, no. of patients (%): 2 (0.2) no. of patients (%)
[2]; [16]
  Blood transfusions over time, Total no. of transfusions: 3
  Blood transfusions over time, no. of patients (%): 3 (0.3) no. of patients (%)
[2]; [17]
  Blood transfusions over time, Total no. of transfusions: 5
  Blood transfusions over time, no. of patients (%): 5 (0.5) no. of patients (%)
[2]; [18]
  Blood transfusions over time, Total no. of transfusions: 2
  Blood transfusions over time, no. of patients (%): 2 (0.2) no. of patients (%)
